In patent US7732412B2, “Methods of treatment using novel LHRH antagonists having improved solubility properties” (Zentaris GmbH, priority 1999, dated 2010):
pIC50, pKd: −log10 of the molar value. Numbered stars: 1 amine (or outer) side, 2 acyl side, 3 side chain; on linkers, the order of the positions; unused ones are H or OH. Square brackets hold non-standard residues; d marks the D form. Side chains are listed from the residue outwards. Peptide text beside a SMILES is read from it. * marks the point of attachment. NH(4-amidinophenyl) = N=C(N)c1ccc(N*)cc1; dPhe(4-Cl) = N[C@H](Cc1ccc(Cl)cc1)C(=O)O; d2Nal = N[C@H](Cc1ccc2ccccc2c1)C(=O)O; Lys(iPr) = CC(C)NCCCC[C@H](N)C(=O)O; NMeY = CN[C@@H](Cc1ccc(O)cc1)C(=O)O; dCit = NC(=O)NCCC[C@@H](N)C(=O)O; d3Pal = N[C@H](Cc1cccnc1)C(=O)O; Suc = O=C(CCC(=O)[*:2])[*:1]

What was measured:
[1] = biological target: T1, human LHRH receptor (Homo sapiens, UniProt P30968); experiment: functional assay for antagonistic activity, fos-Luc luciferase reporter gene, stimulation with 1 nM [D-Trp6] LHRH; type: cell-based; set-up: expressed in transfected cells; conditions: cells stimulated with 1 nM [D-Trp6] LHRH for 6 h; bracket = number of independent experiments
T1 sequence (P30968 1-328): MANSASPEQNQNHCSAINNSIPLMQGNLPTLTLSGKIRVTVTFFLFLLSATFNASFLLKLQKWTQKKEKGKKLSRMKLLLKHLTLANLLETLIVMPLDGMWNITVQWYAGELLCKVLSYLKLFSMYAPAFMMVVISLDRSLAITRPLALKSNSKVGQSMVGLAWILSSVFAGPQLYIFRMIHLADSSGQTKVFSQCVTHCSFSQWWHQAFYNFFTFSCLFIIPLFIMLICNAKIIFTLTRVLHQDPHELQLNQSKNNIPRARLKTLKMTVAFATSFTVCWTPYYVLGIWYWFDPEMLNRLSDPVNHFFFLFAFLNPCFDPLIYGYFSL
Experimental: The assay for the functional characterization of antagonistic analogs of LH-RH was carried out, with some modifications, as described in Beckers et al., “Characterization of gonadotropin-releasing hormone analogs based on a sensitive cellular luciferase reporter gene assay” (1997) Analyt. Biochem. 251, 17-23. The assay uses a reporter gene made by fusing the c-fos immediate-early gene promoter to a DNA sequence encoding luciferase (Luc). A recombinant cell line that expresses the human LH-RH. receptor is stably transfected with the fos-Luc reporter gene. Transcription of the fos-Luc fusion gene and synthesis of the Luc protein is induced in the cells in a dose-dependent manner by LH-RH and other LH-RH agonists that bind and signal through the human LH-RH receptor. Peptide LH-RH antagonists such as the compounds of the invention bind to cellular LH-RH receptors and inhibit this stimulation. The antagonistic potency (IC50) of peptide LH-RH antagonists as determined by the assay generally correlates well with the binding affinity (KD) of the LH-RH antagonists for LH-RH receptor as determined from ligand binding experiments.
Cells containing the fos-Luc reporter gene that express the human LH-RH receptor were cultured for 24 h in microtitre plates using DMEM with additives and 1% (v:v) FCS (10,000 cells per well). The cells were then stimulated with 1 nM [D-Trp^6] LHRH for 6 h. Peptide LH-RH antagonist compounds according to the invention were added before the stimulation, and the cells were lysed at the end for quantification of the cellular Luc activity. The calculation of the IC50 values from dose-effect curves was carried out by non-linear regression analysis using the Hill model (Programme EDX 2.0 from C. Grunwald, Arzneimittelwerk Dresden).
The quantification of the Luc activity was carried out in duplicate essentially as described (Promega Technical Bulletins #101/161) using the respective luciferase assay system (Promega E4030). Owing to addition of coenzyme A (CoA), an oxidation of luciferyl-CoA takes place with advantageous kinetics. After the removal of the culture medium from the microtitre plate, the cells were lysed by addition of 100 μl of lysis buffer (25 mM tris-phosphate pH 7.8, 2 mM dithiothreitol, 2 mM 1,2-diaminocyclohexane-N,N,N′,N′-tetraacetic acid (CDTA), 10% (v:v) glycerol, 1% (v:v) Triton X-100). After incubation at room temperature for 15 min, 10 μl of cell lysate were transferred into a white microtitre plate suitable for luminometric detection (Dynatech). The enzymatic reaction was initiated by addition of 50 μl of assay buffer (20 mM tricine pH 7.8, 1.07 mM (MgCO3)4Mg(OH)2, 2.67 mM MgSO4, 0.1 mM ethylene-diaminetetraacetic acid (EDTA), 33.3 mM dithiothreitol, 270 μM coenzyme A, 470 μM glow-worm (Photinus pyralis) luciferin, 530 μM rATPNa2). After one minute, the luminescence was determined for a total time of one second with a signal half-life of five minutes using the EG&G Berthold MicroLumat LB 96 P.

[2] = biological target: T1, human LHRH receptor; experiment: receptor binding assay, displacement of [125I]-cetrorelix on intact cells; set-up: expressed in transfected cells; host or cells: LTK cells (stably transfected), intact cells; conditions: LTK cells expressing human LHRH receptor, 1 h at 37° C.; bracket = number of independent experiments; read-out: KD (binding affinity)
Text: The compounds according to formula I of the invention were investigated for their receptor binding. The assay method closely followed the process described in Beckers et al., “Selection and characterization of mammalian cell lines with stable overexpression of human pituitary receptors for gonadoliberin (GnRH)” (1995) Eur. J. Biochem., 231, 535-543. Cetrorelix obtained according to the synthesis disclosed above was iodinated with [^125I] (Amersham; specific activity 80.5 Bq/fmol) using the IodoGen reagent (Pierce). The reaction mixture was purified by reverse-phase high-performance liquid chromatography with exchanged phases, monoiodinated cetrorelix being obtained without unlabelled peptide. In each case, about 80% of the [^125I]-cetrorelix was capable of specific receptor association.
The receptor binding assay was carried out under physiological conditions as described (Beckers et al., 1995) using intact cells. Subconfluent cultures of stably transfected LTK cells, which express the human LHRH receptor, were separated off by incubation in NaCl/Pi (137 mM NaCl, 2.7 mM KCl, 8.1 mM Na2HPO4, […])/1 mM EDTA and collected by centrifugation. The cell pellet was resuspended in binding buffer (DMEM without H2CO3, with 4.5 g/l of glucose, 10 mM Hepes pH 7.5, 0.5% (mass/volume) BSA, 1 g/l bacitracin, 0.1 g/l SBTI, 0.1% (mass/volume) NaN3). For displacement assays, 0.25×10^6 cells/100 μl were incubated with approximately 225 pM of the [^125I]-cetrorelix (specific activity 5-10×10^5 dpm/pmol) and various concentrations of unlabelled compound according to the invention as competitor. The cell suspension in 100 μl of binding medium was layered in 400 μl assay tubes over 200 μl of 84% by volume silicone oil (Merck Type 550)/16% by volume paraffin oil. […] Cell pellet and supernatants were then analysed by counting the y radiation. The amount of non-specifically bound material was determined at a final concentration of 1 μM with inclusion of unlabelled cetrorelix and was typically ≦10% of the total bound material. […]

Row | Structure (SMILES) | pIC50 [1] | pKd [2]
1 | CC(=O)N[C@H](Cc1ccc2ccccc2c1)C(=O)N[C@H](Cc1ccc(Cl)cc1)C(=O)N[C@H](Cc1cccnc1)C(=O)N[C@@H](CO)C(=O)N(C)[C@@H](Cc1ccc(O)cc1)C(=O)N[C@H](CCCCNC(=O)CCC(=O)Nc1ccc(C(=N)N)cc1)C(=O)N[C@@H](CC(C)C)C(=O)N[C@@H](CCCCNC(C)C)C(=O)N1CCC[C@H]1C(=O)N[C@H](C)C(N)=O [Example 2, Ac-D-Nal(2)^1-D-Cpa^2-D-Pal(3)^3-Ser^4-N-Me-Tyr^5-D-Lys(B)^6-Leu^7-Lys(iPr)^8-Pro^9-D-Ala^10-NH2] (Ac-[d2Nal][dPhe(4-Cl)][d3Pal]S[NMeY][dK]([Suc-NH(4-amidinophenyl)])L[Lys(iPr)]P[dA]-NH2) | 9.16 | 9.74
2 | CC(=O)N[C@H](Cc1ccc2ccccc2c1)C(=O)N[C@H](Cc1ccc(Cl)cc1)C(=O)N[C@H](Cc1cccnc1)C(=O)N[C@@H](CO)C(=O)N(C)[C@@H](Cc1ccc(O)cc1)C(=O)N[C@H](CCCCNC(=O)CCC(=O)Nc1ccc(C(=N)N)cc1)C(=O)N[C@@H](CC(C)C)C(=O)N[C@@H](CCCNC(=N)N)C(=O)N1CCC[C@H]1C(=O)N[C@H](C)C(N)=O [Example 3, Ac-D-Nal(2)^1-D-Cpa^2-D-Pal(3)^3-ser^4-N-Me-Tyr^5-D-Lys(B)^6-Leu^7-Arg^8-Pro^9-D-Ala^10-NH2] (Ac-[d2Nal][dPhe(4-Cl)][d3Pal]S[NMeY][dK]([Suc-NH(4-amidinophenyl)])LRP[dA]-NH2) | 9.31 | 9.81
3 | CC(=O)N[C@H](Cc1ccc2ccccc2c1)C(=O)N[C@H](Cc1ccc(Cl)cc1)C(=O)N[C@H](Cc1cccnc1)C(=O)N[C@@H](CO)C(=O)N[C@@H](Cc1ccc(O)cc1)C(=O)N[C@H](CCCNC(N)=O)C(=O)N[C@@H](CC(C)C)C(=O)N[C@@H](CCCNC(=N)N)C(=O)N1CCC[C@H]1C(=O)N[C@H](C)C(N)=O [cetrorelix, Ac-D-Nal(2)^1-D-Cpa^2-D-Pal(3)^3-Ser^4-Tyr^5-D-Cit^6-Leu^7-Arg^8-Pro^9-D-Ala^10-NH2, reference compound] (Ac-[d2Nal][dPhe(4-Cl)][d3Pal]SY[dCit]LRP[dA]-NH2) | 9.70 | 9.77
